Assay results taken from BindingDB's records for doi:10.1007/bf00965909 (Biological Research Center of Hungarian Academy of Sciences, 1990).
Values joined by “and” are separate entries in the source; they are usually repeats but may differ in a detail not shown here. Equal entries are not always repeated.

Legend:
[1] = biological target: Kappa-type opioid receptor (Rattus norvegicus, UniProt P34975)
[2] = biological target: kappa-type opioid receptor isoform 1 (Xenopus tropicalis, UniProt F7A0F2)
kappa-type opioid receptor isoform 1, sequence (F7A0F2 whole entry, canonical isoform): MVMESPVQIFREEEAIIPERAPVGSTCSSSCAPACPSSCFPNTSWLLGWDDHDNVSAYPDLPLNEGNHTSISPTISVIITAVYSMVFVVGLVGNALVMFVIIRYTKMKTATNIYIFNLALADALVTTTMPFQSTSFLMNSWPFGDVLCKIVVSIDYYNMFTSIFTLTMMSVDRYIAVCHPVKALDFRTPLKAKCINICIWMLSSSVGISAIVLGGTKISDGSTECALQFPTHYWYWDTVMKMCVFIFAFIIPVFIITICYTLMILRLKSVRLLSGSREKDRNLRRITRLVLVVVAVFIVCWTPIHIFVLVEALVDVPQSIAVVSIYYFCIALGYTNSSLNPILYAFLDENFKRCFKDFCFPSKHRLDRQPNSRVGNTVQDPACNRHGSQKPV

Kappa-type opioid receptor, sequence (P34975 whole entry, canonical isoform): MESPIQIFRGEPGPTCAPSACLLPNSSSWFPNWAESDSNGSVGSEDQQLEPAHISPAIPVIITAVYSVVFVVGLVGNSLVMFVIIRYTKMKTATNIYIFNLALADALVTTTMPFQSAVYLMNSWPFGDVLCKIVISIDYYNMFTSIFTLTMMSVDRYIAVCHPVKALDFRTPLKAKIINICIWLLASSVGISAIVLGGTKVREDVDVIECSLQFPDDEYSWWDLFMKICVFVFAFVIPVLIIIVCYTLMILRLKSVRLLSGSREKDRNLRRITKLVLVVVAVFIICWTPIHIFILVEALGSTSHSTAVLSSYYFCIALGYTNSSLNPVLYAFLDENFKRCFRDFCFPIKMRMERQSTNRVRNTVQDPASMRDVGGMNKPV

| Compound | Ki [1] | Ki [2] |
| --- | --- | --- |
| CC[C@H](C)[C@H](NC(=O)[C@H](CCCNC(=N)N)NC(=O)[C@H](CCCNC(=N)N)NC(=O)[C@H](CC(C)C)NC(=O)[C@H](Cc1ccccc1)NC(=O)CNC(=O)CNC(=O)[C@@H](N)Cc1ccc(O)cc1)C(=O)N[C@@H](CCCNC(=N)N)C(=O)N1CCC[C@H]1C(=O)N[C@@H](CCCCN)C(=O)N[C@@H](CC(C)C)C(=O)N[C@@H](CCCCN)C(=O)O [Dynorphin A (1-13)] | 57 nM | 12 nM and 3.1 nM |
| CC1[C@H]2Cc3ccc(O)cc3[C@]1(C)CCN2C[C@@H]1CCCO1 (stereo partly drawn) [(+)-alpha-(1R,5R,9R)-5,9-Dimethyl-2-L-tetrahydrofurfuryl)-2'-hydroxy-6,7-benzomorphan] | – | 5400 nM |
| C[C@@H](NC(=O)[C@@H](N)Cc1ccc(O)cc1)C(=O)NCC(=O)N(C)[C@@H](Cc1ccccc1)C(=O)NCCO [[tyrosyl-3,5-3H(N)]-D-Ala2-Mephe4-glyol5-enkephalin] | – | 59 nM and 360 nM and 470 nM |
| [N-]=[N+]=N[C@@H]1CC[C@H]2[C@H]3Cc4ccc(O)c5c4[C@@]2(CCN3CC2CC2)[C@@H]1O5 [N-cyclopropylmethylnorazidomorphine] | 0.1 nM and 0.2 nM and 0.3 nM | 0.1 nM |
| CC1[C@H]2Cc3ccc(O)cc3[C@]1(C)CCN2C[C@H]1CCCO1 (stereo partly drawn) [CAS_57236-85-8] | – | 4.8 nM |
| H-YGGFMTSEKSQTPLVTLFKNAIVKNAHKKGQ-OH [Beta-Endorphin] | 2.3 nM | – |
